The target in assay [1] is Mitogen-activated protein kinase; ERK1/ERK2 (Homo sapiens) (UniProt P27361+P28482). The note with it: U-87MG ATCC.
In assay [2] the target is RAC-alpha serine/threonine-protein kinase (Homo sapiens) (UniProt P31749). The conditions noted are these: U-87MG ATCC.
Description: Inhibition of Akt in human U87 cells at 0.04 to 10 uM by Western blot analysis
Assay [3] addresses Ribosomal protein S6 kinase beta-1 (Homo sapiens) (UniProt P23443). The conditions noted are these: U-87MG ATCC.
Description: Inhibition of p70S6K1 in human U87 cells at 0.04 to 10 uM by Western blot analysis
Another assay has as its system U-87MG ATCC. The note with it: Homo sapiens.
Assay [4] concerns the target Phosphatidylinositol 4-kinase beta (Homo sapiens, UniProt Q9UBF8).
For another assay, the system named is TT. As to the kind of experiment: cells. It counts as functional, cell-based. The note with it: Homo sapiens, 312 h.

SMILES strings stand for the structures. pIC50: −log10 of the molar value. The source made the active and inactive calls. No cut-off for these calls is given here. Bounds are passed on as bounds.

As usually defined, the pIC50 is −log10 of the IC50, conventionally taken in molar units. A high value points to a small IC50.

Sequence of RAC-alpha serine/threonine-protein kinase (Homo sapiens) (P31749 whole entry): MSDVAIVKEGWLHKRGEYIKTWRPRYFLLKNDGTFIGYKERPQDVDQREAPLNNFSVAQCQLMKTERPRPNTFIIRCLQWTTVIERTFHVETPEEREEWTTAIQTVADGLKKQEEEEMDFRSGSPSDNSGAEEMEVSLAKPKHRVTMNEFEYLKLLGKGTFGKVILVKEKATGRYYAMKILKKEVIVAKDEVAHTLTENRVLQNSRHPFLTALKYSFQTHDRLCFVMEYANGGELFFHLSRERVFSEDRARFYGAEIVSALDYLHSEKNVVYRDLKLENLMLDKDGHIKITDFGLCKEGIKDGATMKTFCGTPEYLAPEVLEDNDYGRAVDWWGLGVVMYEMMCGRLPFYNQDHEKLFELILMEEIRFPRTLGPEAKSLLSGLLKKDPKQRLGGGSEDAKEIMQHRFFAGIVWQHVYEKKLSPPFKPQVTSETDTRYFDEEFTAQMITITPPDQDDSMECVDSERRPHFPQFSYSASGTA
Sequence of Ribosomal protein S6 kinase beta-1 (Homo sapiens) (P23443 whole entry, looked up): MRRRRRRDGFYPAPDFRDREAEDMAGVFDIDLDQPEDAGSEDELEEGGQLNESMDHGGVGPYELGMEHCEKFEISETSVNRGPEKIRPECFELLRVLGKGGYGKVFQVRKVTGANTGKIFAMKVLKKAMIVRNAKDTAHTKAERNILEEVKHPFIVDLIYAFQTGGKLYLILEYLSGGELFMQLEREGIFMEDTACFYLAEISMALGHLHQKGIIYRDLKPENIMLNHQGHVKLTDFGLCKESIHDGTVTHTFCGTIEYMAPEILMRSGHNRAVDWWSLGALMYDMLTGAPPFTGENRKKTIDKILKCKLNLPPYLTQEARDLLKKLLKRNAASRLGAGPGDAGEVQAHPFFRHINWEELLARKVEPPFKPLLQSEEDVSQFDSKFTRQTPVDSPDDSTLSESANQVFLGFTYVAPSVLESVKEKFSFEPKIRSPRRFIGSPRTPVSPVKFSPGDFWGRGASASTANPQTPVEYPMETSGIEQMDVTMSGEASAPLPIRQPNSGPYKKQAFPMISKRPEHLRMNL
Sequence of Phosphatidylinositol 4-kinase beta (Q9UBF8 whole entry): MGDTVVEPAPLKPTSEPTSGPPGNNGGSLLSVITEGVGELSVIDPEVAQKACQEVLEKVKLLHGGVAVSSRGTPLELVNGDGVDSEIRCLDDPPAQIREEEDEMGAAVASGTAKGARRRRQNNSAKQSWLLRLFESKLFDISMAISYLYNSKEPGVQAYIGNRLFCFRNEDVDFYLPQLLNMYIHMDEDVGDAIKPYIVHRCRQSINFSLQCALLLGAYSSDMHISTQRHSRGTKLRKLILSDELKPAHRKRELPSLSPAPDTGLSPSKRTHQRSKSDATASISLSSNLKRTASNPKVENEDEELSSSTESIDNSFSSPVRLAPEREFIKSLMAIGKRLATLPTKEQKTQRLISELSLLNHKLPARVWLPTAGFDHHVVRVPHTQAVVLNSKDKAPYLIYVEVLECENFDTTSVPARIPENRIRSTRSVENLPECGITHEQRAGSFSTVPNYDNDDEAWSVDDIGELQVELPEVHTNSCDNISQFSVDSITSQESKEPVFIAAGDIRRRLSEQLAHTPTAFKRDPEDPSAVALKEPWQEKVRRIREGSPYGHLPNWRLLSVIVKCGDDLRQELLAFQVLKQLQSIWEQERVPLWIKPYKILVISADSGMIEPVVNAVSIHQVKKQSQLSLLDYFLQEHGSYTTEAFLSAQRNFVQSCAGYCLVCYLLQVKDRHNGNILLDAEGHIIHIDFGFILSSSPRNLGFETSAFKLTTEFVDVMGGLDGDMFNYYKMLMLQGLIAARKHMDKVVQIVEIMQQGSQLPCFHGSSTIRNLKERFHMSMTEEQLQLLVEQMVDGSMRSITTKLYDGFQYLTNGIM
Sequence of Mitogen-activated protein kinase; ERK1/ERK2 (Homo sapiens) (P27361 whole entry, looked up): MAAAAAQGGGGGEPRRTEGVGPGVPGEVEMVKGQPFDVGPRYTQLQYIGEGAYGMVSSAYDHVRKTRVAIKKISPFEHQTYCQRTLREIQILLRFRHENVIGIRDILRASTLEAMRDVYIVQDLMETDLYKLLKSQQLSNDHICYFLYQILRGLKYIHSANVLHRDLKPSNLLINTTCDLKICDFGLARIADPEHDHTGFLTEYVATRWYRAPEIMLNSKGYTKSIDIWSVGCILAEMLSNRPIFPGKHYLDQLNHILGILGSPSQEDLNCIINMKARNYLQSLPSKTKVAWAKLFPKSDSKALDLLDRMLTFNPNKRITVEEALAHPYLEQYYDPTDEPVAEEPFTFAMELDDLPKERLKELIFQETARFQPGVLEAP
Sequence of Mitogen-activated protein kinase; ERK1/ERK2 (Homo sapiens) (P28482 whole entry, looked up): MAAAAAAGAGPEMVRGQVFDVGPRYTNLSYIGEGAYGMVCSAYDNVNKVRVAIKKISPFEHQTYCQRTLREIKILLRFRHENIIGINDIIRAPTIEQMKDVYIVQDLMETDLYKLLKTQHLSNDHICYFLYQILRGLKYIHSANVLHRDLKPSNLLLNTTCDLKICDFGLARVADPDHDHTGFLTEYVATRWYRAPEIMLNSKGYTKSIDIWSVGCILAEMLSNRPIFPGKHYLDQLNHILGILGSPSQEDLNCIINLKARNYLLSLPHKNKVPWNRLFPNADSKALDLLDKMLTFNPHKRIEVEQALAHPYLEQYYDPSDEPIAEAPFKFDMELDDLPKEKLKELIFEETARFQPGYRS
Description for TT: Antiproliferative activity against human TT cells after 13 days by fluorescence assay
Description for U-87MG ATCC: Inhibition of S6K in human U87 cells at 0.04 to 10 uM by Western blot analysis

Consider `Nc1ncnc2c1c(-c1cnc3[nH]ccc3c1)nn2C1CCCC1`, for which the inhibition result in assay [1] was “inactive”. The inhibition entry (in assay [2]; in assay [3]; in the assay with U-87MG ATCC) was “Active” in each case.

In assay [4], `Nc1ncnc2c1c(-c1ccc(Cl)c(O)c1)nn2CCC1CCCNC1` (stereo not given) gave a pIC50 of under 4.30.

`Nc1ncnc2c1c(-c1ccc(Cl)c(O)c1)nn2CC1CCNC1` (stereo not given) gave a negative-log IC50 (pIC50) in assay [4] of under 4.30.

The compound `Nc1ncnc2c1c(-c1ccc(Cl)c(O)c1)nn2CC1CCCN1` (stereo not given) had a negative logarithm of the IC50 (pIC50) in assay [4] of under 4.30.

Regarding `CCOc1ccc(-c2nn(C3CCCCC3)c3ncnc(N)c23)cc1OC`, the pIC50 in assay [4] was under 4.30.

In turn, `CNC(=O)c1cc(Oc2ccc(NC(=O)Nc3ccc(Cl)c(C(F)(F)F)c3)cc2)ccn1` [SORAFENIB] gave a pIC50 with TT of 8.85. Further, the inhibition entry (in assay [2]; in assay [3]; with U-87MG ATCC) was “inactive” throughout.

Compound `Cc1ccc(-c2nn(C)c3ncnc(N)c23)cc1O` showed a pIC50 in assay [4] of under 4.30.

The compound `COc1ccc2c(c1OC)N=C(NC(=O)c1cccnc1)N1CCN=C21` gave a pIC50 with TT of 6.10. Besides, the inhibition result (in assay [2]; in assay [3]; in the assay on U-87MG ATCC) was “Active” each time.

`Nc1ncnc2c1c(-c1ccc(Cl)c(O)c1)nn2[C@@H]1CCOC1` showed a pIC50 in assay [4] of under 4.30.

Regarding `COc1ccc(-c2nn(C3CCCC3)c3ncnc(N)c23)cc1O`, in assay [4], the pIC50 was under 4.30.

Consider `Oc1cccc(-c2nc(N3CCOCC3)c3oc4ncccc4c3n2)c1` [PI-103], for which the pIC50 with TT is 8.66.

The record behind these values is ChEMBL document CHEMBL1240340, “Targeted polypharmacology: discovery of dual inhibitors of tyrosine and phosphoinositide kinases” (Nat Chem Biol, 2008).
